From article PMC5039751, “Profiling of core fucosylated N-glycans using a novel bacterial lectin that specifically recognizes α1,6 fucosylated chitobiose” (Scientific Reports, 2016)

Columns and labels:
SL2-1 [1] = target: T1, SL2-1 (Streptomyces rapamycinicus, UniProt A0ABR6LWE4); test: isothermal titration calorimetry; type: binding; conditions: 20 mM sodium phosphate pH 7.4, 25 °C
T1 construct: gene BJY27_006859; monomer with three ~40-residue repeats
T1 sequence (A0ABR6LWE4 31-188): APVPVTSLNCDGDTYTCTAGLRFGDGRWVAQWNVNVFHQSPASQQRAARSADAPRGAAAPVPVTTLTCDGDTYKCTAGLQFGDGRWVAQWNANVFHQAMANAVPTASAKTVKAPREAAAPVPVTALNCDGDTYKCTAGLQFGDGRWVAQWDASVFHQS
From the text: isothermal titration calorimetry on SL2-1

SL2-1 [2] = target: T1, SL2-1; test: lectin capture in Microcon-30 filter, UPLC-HILIC-FLR; type: binding; conditions: labelled compound (2-AB); mixture of four glycans, 4 pmol each, 20 μg SL2-1, 10 mM Tris-HCl pH 8.0, room temperature; proteinase K elution

Row | Structure (SMILES) | % of total loaded recovered from lectin-bound fraction (SL2-1 [2]) | further results
1 | CC(=O)N[C@H]1[C@H](O[C@H]2[C@H](O)[C@@H](NC(C)=O)C(O)O[C@@H]2CO[C@@H]2O[C@@H](C)[C@@H](O)[C@@H](O)[C@@H]2O)O[C@H](CO)[C@@H](O)[C@@H]1O (stereo partly drawn) [N2F, α1-6 fucosylated chitobiose] | – | Kd (SL2-1 [1]; n = 2.01): 1590 nM
2 | CC(=O)N[C@H]1[C@H](O[C@@H]([C@H](O)[C@H](CNc2ccccc2C(N)=O)NC(C)=O)[C@H](O)CO[C@@H]2O[C@@H](C)[C@@H](O)[C@@H](O)[C@@H]2O)O[C@H](CO)[C@@H](O[C@@H]2O[C@H](CO[C@H]3O[C@H](CO)[C@@H](O)[C@H](O)[C@@H]3O[C@@H]3O[C@H](CO)[C@@H](O[C@@H]4O[C@H](CO)[C@H](O)[C@H](O)[C@H]4O)[C@H](O)[C@H]3NC(C)=O)[C@@H](O)[C@H](O[C@H]3O[C@H](CO)[C@@H](O)[C@H](O)[C@@H]3O[C@@H]3O[C@H](CO)[C@@H](O[C@@H]4O[C@H](CO)[C@H](O)[C@H](O)[C@H]4O)[C@H](O)[C@H]3NC(C)=O)[C@@H]2O)[C@@H]1O [NA2F, 2-aminobenzamide (2-AB)-labeled asialo-, galactosylated biantennary N-glycan with core α1-6 fucose] | 95% | –
3 | CC(=O)N[C@H]1[C@H](O[C@@H]([C@H](O)[C@H](CNc2ccccc2C(N)=O)NC(C)=O)[C@H](O)CO[C@@H]2O[C@@H](C)[C@@H](O)[C@@H](O)[C@@H]2O)O[C@H](CO)[C@@H](O[C@@H]2O[C@H](CO[C@H]3O[C@H](CO)[C@@H](O)[C@H](O)[C@@H]3O)[C@@H](O)[C@H](O[C@H]3O[C@H](CO)[C@@H](O)[C@H](O)[C@@H]3O)[C@@H]2O)[C@@H]1O [M3N2F, 2-aminobenzamide (2-AB)-labeled trimannosyl core N-glycan (paucimannose) with core α1-6 fucose] | 91% | –
4 | CC(=O)N[C@H]1[C@H](O[C@H]2[C@H](O)[C@@H](NC(C)=O)C(O)O[C@@H]2CO[C@@H]2O[C@@H](C)[C@@H](O)[C@@H](O)[C@@H]2O)O[C@H](CO)[C@@H](O[C@@H]2O[C@H](CO[C@H]3O[C@H](CO)[C@@H](O)[C@H](O)[C@@H]3O[C@@H]3O[C@H](CO)[C@@H](O[C@@H]4O[C@H](CO[C@]5(C(=O)O)C[C@H](O)[C@@H](NC(C)=O)[C@H]([C@H](O)[C@H](O)CO)O5)[C@H](O)[C@H](O)[C@H]4O)[C@H](O)[C@H]3NC(C)=O)[C@@H](O)[C@H](O[C@H]3O[C@H](CO)[C@@H](O)[C@H](O)[C@@H]3O[C@@H]3O[C@H](CO)[C@@H](O[C@@H]4O[C@H](CO)[C@H](O)[C@H](O)[C@H]4O)[C@H](O)[C@H]3NC(C)=O)[C@@H]2O)[C@@H]1O (stereo partly shown) [A1F, monosialo-fucosylated biantennary N-glycan] | – | Kd (SL2-1 [1]; n = 1.85): 1060 nM
